Patent US12673029B2, “Nanodelivery system based on globulin-1 S allele, preparation method therefor and use thereof” (Zhejiang Gongshang University, priority 2022, dated 2026)

Columns and labels:
[1] = test system: wheat GSA protein (globulin-1 S allele); assay: Fluorescence quenching determination of the binding force of wheat GSA protein to curcumin; conditions: for KSV (Stern-Volmer dynamic quenching constant): GSA 1 μM, curcumin 1-10 μM
Protocol: A wheat GSA protein solution and a curcumin solution were mixed in a certain ratio (1:1, 1:2, 1:5, 1:10) at different temperatures (298 K, 303 K, 310 K) for 2 hours. The final concentration of GSA was 1 μM, wherein the molecular weight of GSA was 56.16 KDa and the concentration of curcumin was 1 μM, 2 μM, 5 μM and 10 μM. The excitation spectrum was set at 280 nm, the emission spectrum was from 320 nm to 500 nm, and the recording temperature was 298 K, 303 K, and 310 K.
At an excitation wavelength of 280 nm, tryptophan and tyrosine residues will be excited. Binding of proteins and small molecules will lead to a decrease in fluorescence emission. As the concentration of curcumin increased, the fluorescence intensity decreased constantly and a slight red shift appeared.
Fluorescence quenching can be divided into dynamic quenching and static quenching. A dynamic quenching process can be distinguished by a Stern-Volmer equation: F0/F=1+KSV[Q]=1+Kqτ0[Q] (1)
wherein F0 and F are the GSA fluorescence intensity of the system in the absence and presence of curcumin, respectively; [Q] is the concentration of a quencher curcumin; and Kq is a fluorescence quenching rate constant.
Values for a static quenching mechanism, a binding constant and the number of binding sites can be obtained from a […] equation: log[(F0-F)/F]=log(Ka)+n log[Q] (2)
wherein Ka is a binding constant, [Q] is the concentration of curcumin, and n is the number of binding sites. A log-log plot of log[(F0−F)/F] versus log[Q] was made at 298 K, 303 K, and 310 K, respectively, according to the equation, as shown in FIG. 3. Ka and n at different temperatures were obtained from the intercept and slope.
To determine the action force between GSA and curcumin, the temperature-dependent thermodynamic parameters (ΔG, ΔH, and ΔS) were calculated using the following equations: -lnK==−ΔH/RT+ΔS/RΔG=ΔH−TΔS (3) • wherein R is a gas constant (8.314 J/mol*K), and T is the experimental temperature.

[2] = Light stability assay under UV irradiation (absorbance at 426 nm); assay type: physicochemical; conditions: 30 W UV lamp
Protocol: 0.93 mg of curcumin and 14.96 mg of wheat GSA protein-curcumin composite nanoparticles were accurately weighed to be separately put in petri dishes, and were irradiated at a close range with a 30 W UV lamp, sampling was performed at 0 h, 1 h, 2 h, 3 h, 4 h, 5 h, and 6 h, the samples were separately dissolved with a […], a volume was made up to a constant volume of 250 mL, 10 mL of the prepared solution was taken, and an absorbance at 426 nm was measured, wherein the absorbance was measured for three times to take an average.

Dendritic cells DC2.4 = assay: Biological activity assay in OVA-sensitized dendritic cells DC2.4 (qRT-PCR of pro-inflammatory cytokines); assay type: cell-based; conditions: DC2.4 cells sensitized with OVA, cultured 24 hours
Protocol: Dendritic cells DC2.4 were sensitized by treatment with ovalbumin (OVA) and cultured for 24 hours with curcumin and wheat GSA protein-curcumin composite nanoparticles as experimental groups, respectively, and relevant experiments were conducted. Total RNA was extracted from the cells, and subjected to reverse transcription according to the instructions to obtain cDNA of relevant cells, and a quantitative reverse transcription polymerase chain reaction (qRT-PCR) was carried out by using a real-time fluorescence quantitative PCR system.

What does the source list for COc1cc(/C=C/C(=O)CC(=O)/C=C/c2ccc(O)c(OC)c2)ccc1O [curcumin, Curcumin]?
Kq (fluorescence quenching rate constant) ([1]; 298 K): 1.3981 10^13 L/mol*s; Ka value, order of magnitude ([1]; 298 K, 303 K, and 310 K, 120 min): ~10^6; Ka (binding constant) ([1]; 298 K, 120 min): 8.5822 10^6 L/mol; KSV (Stern-Volmer dynamic quenching constant) ([1]; 298 K): 1.3981 10^5 L/mol; Kq (fluorescence quenching rate constant) ([1]; 303 K): 2.0211 10^13 L/mol*s; Ka (binding constant) ([1]; 303 K, 120 min): 15.7797 10^6 L/mol; KSV (Stern-Volmer dynamic quenching constant) ([1]; 303 K): 2.0211 10^5 L/mol; Kq (fluorescence quenching rate constant) ([1]; 310 K): 3.0636 10^13 L/mol*s; Ka (binding constant) ([1]; 310 K, 120 min): 16.9238 10^6 L/mol; KSV (Stern-Volmer dynamic quenching constant) ([1]; 310 K): 3.0636 10^5 L/mol; absorbance at 426 nm after UV irradiation ([2]; 2 h of UV irradiation): 0.606; absorbance at 426 nm after UV irradiation ([2]; 5 h of UV irradiation): 0.252; absorbance at 426 nm after UV irradiation ([2]; 6 h of UV irradiation): 0.214; decrease of absorbance after UV irradiation ([2]; 6 h of UV irradiation): 75%; alleviating effect on the allergic effect produced by OVA (pro-inflammatory cytokine mRNA such as IL-6) (Dendritic cells DC2.4): a certain alleviating effect
